{"source": "patent US20200390743A1", "about": "“Methods and Compositions For Improving Outcomes of Cancer Patients” (Reven IP HoldCo LLC, priority 2019, published 2020)", "origin": "cited, not measured here", "key": {"[1]": {"details": "241 osteoporotic women"}, "[2]": {"details": "rats, 100 mg/kg body weight daily"}}, "data": [{"smiles": "CC(C)=CCC/C(C)=C/CC/C(C)=C/CC/C(C)=C/CC1=C(C)C(=O)c2ccccc2C1=O", "note": "[Vitamin K2]", "values": [{"measurement": "total cholesterol levels, lipid peroxidation, ester cholesterol deposition in the aorta and factor X activity in plasma", "setting": "compared to the control group", "result": "reduce"}, {"measurement": "atherosclerotic plaque progression in the aorta and pulmonary arteries", "setting": "rabbits, 1-10 mg/kg daily for 10 weeks", "result": "inhibited the atherosclerotic plaque progression"}, {"measurement": "fracture incidence", "setting": "[1]; 45 mg/day vitamin K2 and 150 mg elemental calcium, two years, 30% in control group", "result": 10, "unit": "%"}, {"measurement": "lumbar bone mineral density", "setting": "[1]; 45 mg/day, after two years", "result": "maintain"}, {"measurement": "calcium in kidneys and aorta induced by megadose of synthetic vitamin D", "setting": "[2]", "result": "inhibited the increase in calcium"}]}]}
